The results in this text go back to patent US12276654B2, “Chemical probe-dependent evaluation of protein activity and uses thereof” (The University of Chicago, priority 2017, dated 2025).

For experiment [1], the target named is T1, NCEH1 (Mus musculus, UniProt Q8BLF1).
T1 construct: Then the mPBMCs were acquired from the mouse blood and subjected to family wide probe treatment; from tissue; host or cells: mouse blood PBMCs (mPBMCs)
T1 sequence (Q8BLF1 1-408): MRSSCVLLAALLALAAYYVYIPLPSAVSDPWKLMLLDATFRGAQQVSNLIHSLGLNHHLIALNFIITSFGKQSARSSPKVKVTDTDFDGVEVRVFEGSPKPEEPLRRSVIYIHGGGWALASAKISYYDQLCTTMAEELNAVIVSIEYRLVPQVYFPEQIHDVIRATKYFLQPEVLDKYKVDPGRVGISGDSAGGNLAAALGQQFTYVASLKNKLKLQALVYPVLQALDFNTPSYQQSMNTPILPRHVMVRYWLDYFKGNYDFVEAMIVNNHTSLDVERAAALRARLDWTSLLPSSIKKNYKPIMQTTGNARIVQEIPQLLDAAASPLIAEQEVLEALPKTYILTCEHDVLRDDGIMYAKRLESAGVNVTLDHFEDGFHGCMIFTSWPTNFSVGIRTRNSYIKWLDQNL
Put plainly: sADPL in vivo target engagement in mPBMCs after oral gavage, NCEH1. The following applies: mice. From the text: FIG. 25. In vivo Target Engagement. The mice were administrated with vehicle (PEG300) or NCEH1 inhibitor JW480 by oral gavage. Then the mPBMCs were acquired from the mouse blood and subjected to family wide probe treatment to profile the in vivo target engagement.
Following the in vitro study, in vivo target engagement was planned. In this experiment, the inventors orally gavaged the mice with vehicle or inhibitors, then collected the mPBMCs for probe treatment and sADPL measurement. Again, first the activity of NCEH1 was tested in mice PBMCs, and good activity was found. The delta Ct is over 7 cycles, which is over 100 fold change.

Experiment [2] deals with T2, NCEH1 (Homo sapiens, UniProt Q6PIU2).
T2 sequence (Q6PIU2 1-408): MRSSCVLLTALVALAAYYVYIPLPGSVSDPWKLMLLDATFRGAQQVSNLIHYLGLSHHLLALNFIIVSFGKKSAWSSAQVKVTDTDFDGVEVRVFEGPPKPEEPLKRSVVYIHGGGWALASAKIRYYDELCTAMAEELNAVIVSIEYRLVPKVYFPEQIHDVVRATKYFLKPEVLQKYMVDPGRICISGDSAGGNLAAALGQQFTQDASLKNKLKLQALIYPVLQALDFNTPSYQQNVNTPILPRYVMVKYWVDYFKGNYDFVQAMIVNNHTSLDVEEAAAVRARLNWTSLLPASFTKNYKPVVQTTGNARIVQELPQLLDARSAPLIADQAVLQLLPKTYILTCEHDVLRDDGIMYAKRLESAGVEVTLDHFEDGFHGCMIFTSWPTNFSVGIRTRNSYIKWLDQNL
Put plainly: sADPL in situ target engagement in cancer cells, NCEH1. The following applies: inhibitor prior to family-wide probe. On the set-up: endogenous NCEH1 activity in SKOV3 cells; endogenous in cells; host or cells: SKOV3; wild-type PC3; PAFAH2-expressing PC3. It is filed as cell-based. As for the experimental part: FIG. 23. In situ Target Engagement. Cancer cells were treated with DMSO as the control, with inhibitor prior to family wide probe to pre-block the active site, or with family-wide probe directly. Then sADPL workflow was applied to read out the CT difference. Serine hydrolase NCEH1 and its specific inhibitor JW480, or FAAH and inhibitor PF3845 were applied. The activity fold change was transformed from CT value with PCR amplification factor 1.91 determined by a standard qPCR curve and the activities were normalized to DMSO control at different cell lysate concentrations. […] To quantitatively measure the target engagement, different dose of JW480 was applied to either its target NCEH1, or off-target MGLL.
As another alternative detection method, sADPL is complementary with gel-based and MS-based detection methods. In this design, the inventors treat the live cell with several family-wide probes. The probes will label all the members of the protein families. Then one could get the labeled proteome after the cell lysis. […]
A summary of this assay is provided below: • 1. […] In the oligo design, the orthogonal forward primers were employed for different antibody to enable the multiplexing real time PCR readout. […]
Two amine modified oligos were conjugated to antibody and streptavidin, respectively. […] A Taqman probe was designed for real time PCR quantification. […]

For orientation: IC50 means the concentration that gives 50% inhibition.

As for `CC(C)c1ccccc1OC(=O)NCCc1ccc2ccccc2c1` [JW480], the “NCEH1 activity in mPBMCs (raw Ct values)” value at NCEH1 [1] (3 mg/kg (partial inhibition) vs vehicle PEG300) is “lower activity”; at NCEH1 [1] (80 mg/kg (complete inhibition) vs vehicle PEG300) it was “even lower activity”. At NCEH1 [2] (cancer cells treated in situ, read-out: apparent IC50, dose-dependent inhibition of NCEH1 by sADPL), the IC50 turned out to be 17.8 nM. Further, the “NCEH1 activity in inhibitor competition group by sADPL, normalized to DMSO control” value on NCEH1 [2] (cancer cells) is listed as “bring the activities down to the levels of DMSO controls”.
